Consider 28 molecules from patent US8178688B2, “Benzamidine derivatives, process for the preparation thereof and pharmaceutical composition comprising the same” (Dong Wha Pharmaceutical Co., Ltd., priority 2004, dated 2012).

One experiment relates to osteoclast differentiation. Description: Inhibitory effects on osteoclast differentiation (co-culture of bone marrow cells with osteoblast, TRAP staining). It is filed as cell-based, mice. The following applies: Mus musculus, Osteoclast, 168 h, read-out: % inhibitory activity on osteoclastogenesis. The protocol:
The effect of benzamidine derivatives of the present invention on osteoclast proliferation and differentiation process was evaluated via co-culture with osteoblast.
Tibia and Femora were aseptically ectomized from male ddY mice of 6-8 weeks to harvest bone marrow cells by using a syringe (21G, Korea Green Cross).
The bone marrow cells were suspended in 5 mL α-MEM medium (Gibco BRL Co.) containing sodium bicarbonate (2.0 g/L), streptomycin (100 mg/L) and penicillin ([…]). The harvested cells were centrifuged at 600×g for 5 mins to collect the whole quantity. To remove the red blood cells within bone marrow cells, 3 mL of Tris HCl (0.83% NH4Cl, pH7.5) was added and well mixed. After centrifuging above cells, the numbers of bone marrow cells were counted and then, the bone marrow cells were immediately used for co-culture system with osteoblast.
The calvaria were aseptically ectomized from neonate ICR mice of 1˜2 days, washed with PBS solution and incubated with a mixture of enzyme solution (0.2% collagenase and 0.1% dispase) at 37° C. gentle shaker. This procedure was sequentially repeated (10, 10, 10, 20, 20 and 20 mins), and then the calvaria cells having the characteristics of osteoblast mostly released from III-VI digestion groups were collected and washed with the medium (serum-free α-MEM). The washed cells were cultivated in α-MEM medium containing 10% FBS for 2˜3 days. After subculturing, these cells were used for this experiment, and diluted to reach the concentration of 1×10^6 cell/mL for storage at −70° C.
Benzamidine derivatives of the present invention were dissolved in a sterile distilled water or ethanol to make desired concentrations following dilution. The final volume of specimen added to the medium was determined at the ratio of 1:1000.
Bone marrow cells prepared, in the above and osteoblast from calvaria were co-cultured for osteoclast differentiation. Both bone marrow cells (25,000 cells/cm^2) and osteoblast (10,000 cells/cm^2) were plated on a 96 well plate in α-MEM medium containing FBS with specimen, and then cultured with test materials for 7 days. Differentiation factors, such as dexamethasone (10^−7M) and vitamin D3 (10^−8M), were also continuously added to the medium from the first day of cultivation. The medium was changed with fresh media containing a mixture of specimens and differentiation factors every 2˜3 day.
TRAP was used as a marker to measure osteoclast in consideration of its characteristics showing a positive reaction to TRAP staining solution. TRAP staining solution was prepared in a manner that 5 mg of naphtol AS-MS phosphate (sigma N-4875), a substrate and 25 mg of coloring agent (Fast Red Violet LB salt) were dissolved in N,N-dimethylformamide (about 0.5 mL), 0.1N NaHCO3 buffer solution (50 mL) containing 50 mM tartaric acid was added, and the reaction mixture was stored at refrigerator prior to use.
After culturing the cells for 7 days, the medium was removed from the wells, the cells were once washed with PBS solution and fixed to PBS containing 10% formalin for 2˜5 mins. The cells were fixed again in a mixed solution of ethanol and acetone (1/1) for about 1 min, and dried off. The cells were further treated by TRAP staining solution for 15 mins and washed with PBS. The experimental results were measured by counting the number of osteoclasts with 3 or more nuclei showing TRAP-positive reaction under a microscopic examination. Each of tests was confirmed over three times for gaining more reliable data.
As shown in the following table 7, the inhibitory effect of each experimental group on the differentiation of osteoclast versus controls was expressed by inhibitory percentage value.
On to `CCCN1CCC(c2nc(-c3ccc(OCCCCCOc4ccc(C(=N)NO)cc4)cc3)c(C)s2)CC1` [Example 72, N-hydroxy-4-(5-[4-(5-methyl-2-(1-propyl-piperidin-4-yl)-1,3-thiazol-4-yl)phenoxy]pentoxy)-benzamidine], for which the inhibition at 1 µM was determined as 67.9%.
On the same count and under the same terms, to `CC(C)c1sc(C2CCCNC2)nc1-c1ccc(OCCCCCOc2ccc(C(=N)NO)cc2)cc1` (stereo not shown) [Example 83, N-hydroxy-4-(5-[4-(5-isopropyl-2-(piperidin-3-yl)-1,3-thiazol-4-yl)phenoxy]pentoxy)-benzamidine] belongs 23.8%.

Still in this experiment, the particulars now being: Mus musculus, Osteoclast, 168 h; 1 m; co-culture of bone marrow cells and osteoblast, 7 days, TRAP-positive osteoclasts versus controls; read-out: % inhibitory activity on osteoclastogenesis.
As for `CC(C)c1sc(CN2CCOCC2)nc1-c1ccc(OCCCCCOc2ccc(C(=N)NO)cc2)cc1` [Example 70, N-hydroxy-4-(5-[4-(5-isopropyl-2-morpholinomethyl-1,3-thiazol-4-yl)phenoxy]pentoxy)-benzamidine], the inhibition at 1 µM worked out at 32.7%.
Turning to `CC(C)c1sc(CN)nc1-c1ccc(OCCCCCOc2ccc(C(=N)NO)cc2)cc1` [Example 73, N-hydroxy-4-(5-[4-(5-isopropyl-2-aminomethyl-1,3-thiazol-4-yl)phenoxy]pentoxy)-benzamidine], the inhibition at 1 µM was determined as 54.2%.
The same measure, in the same setting: to `C=Cc1sc(C)nc1-c1ccc(OCCCCCOc2ccc(C(=N)NO)cc2)cc1` [Example 74, N-hydroxy-4-(5-[4-(5-vinyl-2-methyl-1,3-thiazol-4-yl)phenoxy]pentoxy)-benzamidine] belongs 92.6%.
The same measure, in the same setting: next, `Cc1nc(-c2ccc(OCCCCCOc3ccc(C(=N)NO)cc3)cc2)c(CO)s1` [Example 75, N-hydroxy-4-(5-[4-(5-hydroxymethyl-2-methyl-1,3-thiazol-4-yl)phenoxy]pentoxy)-benzamidine]: 40.2%.
`COCc1sc(C)nc1-c1ccc(OCCCCCOc2ccc(C(=N)NO)cc2)cc1` [Example 76, N-hydroxy-4-(5-[4-(5-methoxymethyl-2-methyl-1,3-thiazol-4-yl)phenoxy]pentoxy)-benzamidine]: the inhibition at 1 µM was 99%.
In the case of `N=C(NO)c1ccc(OCCCCCOc2ccc(-c3nc(N)sc3CCCl)cc2)cc1` [Example 77, N-hydroxy-4-(5-[4-(5-(2-chloroethyl)-2-amino-1,3-thiazol-4-yl)phenoxy]pentoxy)-benzamidine], the inhibition at 1 µM is 83.3%.
In the case of `C=Cc1sc(N)nc1-c1ccc(OCCCCCOc2ccc(C(=N)NO)cc2)cc1` [Example 78, N-hydroxy-4-(5-[4-(5-vinyl-2-amino-1,3-thiazol-4-yl)phenoxy]pentoxy)-benzamidine], the inhibition at 1 µM worked out at 97.5%.
Still for that read-out and setting: to `C=Cc1sc(-c2cccnc2)nc1-c1ccc(OCCCCCOc2ccc(C(=N)NO)cc2)cc1` [Example 79, N-hydroxy-4-(5-[4-(5-vinyl-2-(pyridin-3-yl)-1,3-thiazol-4-yl)phenoxy]pentoxy)-benzamidine] belongs 96.4%; to `N=C(NO)c1ccc(OCCCCCOc2ccc(-c3nc(-c4cccnc4)sc3CCCl)cc2)cc1` [Example 80, N-hydroxy-4-(5-[4-(5-(2-chloroethyl)-2-(pyridin-3-yl)-1,3-thiazol-4-yl)phenoxy]pentoxy)-benzamidine], 96.4%.
Same read-out and setting: to `N=C(NO)c1ccc(OCCCCCOc2ccc(-c3nc(N)sc3C3CCCC3)cc2)cc1` [Example 81, N-hydroxy-4-(5-[4-(2-amino-5-cyclopentyl-1,3-thiazol-4-yl)phenoxy]pentoxy)-benzamidine] belongs 29.5%.
`CCc1sc(CN)nc1-c1ccc(OCCCCCOc2ccc(C(=N)NO)cc2)cc1` [Example 82, N-hydroxy-4-(5-[4-(5-ethyl-2-aminomethyl-1,3-thiazol-4-yl)phenoxy]pentoxy)-benzamidine]: the inhibition at 1 µM stood at 8.9%.
Same read-out and setting: to `CCNc1nc(-c2ccc(OCCCCCOc3ccc(C(=N)NO)cc3)cc2)cs1` [Example 84, N-hydroxy-4-(5-[4-(2-ethylamino-1,3-thiazol-4-yl)phenoxy]pentoxy)-benzamidine] belongs 100%.
The same measure, in the same setting: next, `CCS(=O)(=O)Nc1nc(-c2ccc(OCCCCCOc3ccc(C(=N)NO)cc3)cc2)cs1` [Example 85, N-hydroxy-4-(5-[4-(2-ethanesulfonylamino-1,3-thiazol-4-yl)phenoxy]pentoxy)-benzamidine]: 5.3%.
Take `N=C(NO)c1ccc(OCCCCCOc2ccc(-c3nc(NC(=O)c4cccnc4)sc3CC3CCCC3)cc2)cc1` [Example 89, N-hydroxy-4-(5-[4-(5-cyclopentylmethyl-2-(3-pyridylcarbonyl)amino-1,3-thiazol-4-yl)phenoxy]pentoxy)-benzamidine]: the inhibition at 1 µM turned out to be 81.2%.
Same read-out and setting: to `Cc1sc(NC(=O)CO)nc1-c1ccc(OCCCCCOc2ccc(C(=N)NO)cc2)cc1` [Example 90, N-hydroxy-4-(5-[4-(2-hydroxyacetylamino-5-methyl-1,3-thiazol-4-yl)phenoxy]pentoxy)-benzamidine] belongs 61.9%; to `Cc1sc(NC(=O)c2cccnc2)nc1-c1ccc(OCCCCCOc2ccc(C(=N)NO)cc2)cc1` [Example 92, N-hydroxy-4-(5-[4-(5-methyl-2-(3-pyridylcarbonyl)amino-1,3-thiazol-4-yl)phenoxy]pentoxy)-benzamidine], 49%.
On the same count and under the same terms, to `COCCNc1nc(-c2ccc(OCCCCCOc3ccc(C(=N)NO)cc3)cc2)c(C)s1` [Example 94, N-hydroxy-4-(5-(4-(2-(2-methoxyethyl)amino-5-methyl-1,3-thiazol-4-yl)phenoxy]pentoxy)-benzamidine] belongs 77.2%; to `CCc1sc(NS(=O)(=O)CC)nc1-c1ccc(OCCCCCOc2ccc(C(=N)NO)cc2)cc1` [Example 95, N-hydroxy-4-(5-[4-(2-ethanesulfonylamino-5-ethyl-1,3-thiazol-4-yl)phenoxy]pentoxy)-benzamidine], 47.1%; to `CCNc1nc(-c2ccc(OCCCCCOc3ccc(C(=N)NO)cc3)cc2)c(CC)s1` [Example 97, N-hydroxy-4-(5-[4-(5-ethyl-2-ethylamino-1,3-thiazol-4-yl)phenoxy]pentoxy)-benzamidine], 42.6%.
Turning to `CCc1sc(NC(=O)c2cccnc2)nc1-c1ccc(OCCCCCOc2ccc(C(=N)NO)cc2)cc1` [Example 101, N-hydroxy-4-(5-[4-(5-ethyl-2-(3-pyridylcarbonyl)amino-1,3-thiazol-4-yl)phenoxy]pentoxy)-benzamidine], the inhibition at 1 µM worked out at 43.7%.
Same read-out and setting: next, `CCc1sc(NCCOC)nc1-c1ccc(OCCCCCOc2ccc(C(=N)NO)cc2)cc1` [Example 102, N-hydroxy-4-(5-[4-(5-ethyl-2-(2-methoxyethyl)amino-1,3-thiazol-4-yl)phenoxy]pentoxy)-benzamidine]: 96.4%; `CNc1nc(-c2ccc(OCCCCCOc3ccc(C(=N)NO)cc3)cc2)c(C(C)C)s1` [Example 103, N-hydroxy-4-(5-[4-(5-isopropyl-2-methylamino-1,3-thiazol-4-yl)phenoxy]pentoxy)-benzamidine]: 25.4%.
On the same count and under the same terms, next, `CCNc1nc(-c2ccc(OCCCCCOc3ccc(C(=N)NO)cc3)cc2)c(C(C)C)s1` [Example 104, N-hydroxy-4-(5-[4-(2-ethylamino-5-isopropyl-1,3-thiazol-4-yl)phenoxy]pentoxy)-benzamidine]: 40%; `CCCCc1sc(NC)nc1-c1ccc(OCCCCCOc2ccc(C(=N)NO)cc2)cc1` [Example 105, N-hydroxy-4-(5-[4-(5-butyl-2-methylamino-1,3-thiazol-4-yl)phenoxy]pentoxy)-benzamidine]: 61.1%.
On the same count and under the same terms, next, `CCCCc1sc(NCC)nc1-c1ccc(OCCCCCOc2ccc(C(=N)NO)cc2)cc1` [Example 106, N-hydroxy-4-(5-[4-(5-butyl-2-ethylamino-1,3-thiazol-4-yl)phenoxy]pentoxy)-benzamidine]: 0%.
Turning to `CCNc1nc(-c2ccc(OCCCCCOc3ccc(C(=N)NO)cc3)cc2)c(Cc2ccccc2)s1` [Example 108, N-hydroxy-4-(5-[4-(5-benzyl-2-ethylamino-1,3-thiazol-4-yl)phenoxy]pentoxy)-benzamidine], the inhibition at 1 µM was determined as 25.4%.
